Patent US8815799B2, “Inhibiting striated muscle activator of RHO (stars) to improve glycemic control” (Joslin Diabetes Center, Inc., priority 2010, dated 2014)
“Also recorded” adds a separate entry of the source.

Tests used:
[1] = tested on: C2C12 myotubes; experiment: Deoxyglucose uptake in cultured myotubes (FIG. 11E); type: cell-based
Source text: (§1) Since CCG-1423 increased insulin signalling in myotubes, we hypothesized that CCG-1423 might also enhance glucose uptake. In DMSO (vehicle)-treated myotubes, insulin stimulated a 2-fold increase in deoxyglucose uptake in a dose-dependent manner, consistent with prior reports and the low insulin responsiveness in cultured myotubes (FIG. 11E). […] In parallel, expression of the dominant glucose transporters GLUT4 and GLUT1 was increased by CCG-1423 treatment by 4.1 and 2.5 fold, respectively (p<0.004).
(§2) To determine whether increased expression of STARS can modulate glucose uptake, basal and insulin-stimulated glucose uptake in are measured in L6 myotubes overexpressing STARS (day 6 of differentiation). In brief, following overnight serum starvation, myotubes are treated with insulin (0 to 100 nM) for 20 minutes and then incubated with transport solution (140 mM NaCl, 20 mM Hepes, 5 mM KCl, 2.5 mM MgSO4, 1.0 mM CaCl2, 10 μM 2-deoxyglucose, 0.5 μCi/mL [^3H]-2-deoxyglucose) for 10 minutes. Cells are lysed in 0.05N NaOH and radioactivity determined by scintillation counting. All assays are performed in quadruplicate and corrected by uptake in cytochalasin-treated wells. Glucose transport assays are also performed in STARS-Myc-GLUT4 cells, given their higher insulin responsiveness.

[2] = tested on: Myc-GLUT4 L6 myotubes; experiment: Glucose uptake in Myc-GLUT4 L6 myotubes; type: cell-based
Method: as §2
(§3) To address whether STARS and MKL1-dependent SRF transcriptional activity contribute to the pathophysiology of insulin resistance, experiments were performed to test whether modulation of STARS expression and/or SRF activation can improve key cellular phenotypes associated with insulin resistance, including insulin action and glucose uptake. L6 myotubes stably expressing Myc-GLUT4 were infected with an adenovirus containing a short hairpin targeting STARS, resulting in a 54% reduction in STARS protein expression; this was associated with a 3.7-fold increase in basal glucose uptake and a 3.6-fold increase in insulin-stimulated glucose uptake (FIG. 19A).
To test the effect of reduced STARS expression (shRNA) and reduced SRF pathway activation (chemical inhibitor CCG-1423) in cultured myotubes, knock-down assays were performed. shSTARS target sequences (Forward 5′-[…] […] A-3′ (SEQ ID NO:1); Reverse 5′-[…] […] […]-3′ (SEQ ID NO:2)), or scrambled control (IDT RNA design), were cloned into pAdTrack-CMV adenoviral vector, and Myc-GLUT4 L6 myotubes were infected with amplified adenovirus (8×10^7 pfu/well, 6-well plate) at 3 days after differentiation. […] Thus, experimental reductions in STARS expression are associated with an increase insulin signaling and basal glucose uptake in cultured myotubes.
Since genetic knockdown of STARS expression enhanced glucose transport, a key question is whether pharmacologic inhibition of SRF transcriptional activity would similarly modulate glucose transport. Studies with CCG-1423, an SRF transcriptional inhibitor identified by compound library screening, were performed. […] By comparison, insulin stimulated glucose uptake by 1.6-fold (p<0.01; FIG. 20).

[3] = tested on: STARS; experiment: STARS expression in C2C12 myotubes after actin disruption; type: cell-based; settings: disruption of actin
Source text: Additional pathway analysis using MAPPFinder confirmed that serum response factor (SRF)-dependent and actin-related cytoskeleton gene expression is increased in diabetes, and more importantly, also in insulin resistance. The top-ranking single gene differentially expressed in skeletal muscle in the fasting state is the Actin-binding Rho activating protein (ABRA), or STARS, increased by 2.5 fold in individuals with type 2 diabetes (p<0.01). This gene regulates intracellular actin dynamics and subcellular localization of MKL1/2, thus contributing to SRF-dependent gene transcription. Since disruption of actin by latrunculin B increases STARS expression in C2C12 cells by 50% in C2C12 myotubes (p<0.03, not shown), it was hypothesize that increased STARS expression in DM may reflect disruption of actin dynamics and also contribute to the pattern of increased SRF-related gene expression. Similar patterns of SRF-dependent expression are also observed in adipose tissue from insulin resistant subjects and in insulin resistant muscle.

[4] = tested on: SRF transcriptional activity; experiment: SRF transcriptional activity, 4x CArG (SRE) promoter luciferase reporter in C2C12 cells; type: cell-based; settings: activity induced by serum, dexamethasone or insulin, CCG-1423 1 μM, 16 hours pre-treatment (FIG. 10, 11B)
Method: FIG. 11B is a bar graph showing the effect of CCG on SRF transcriptional activity. 4× CArG promoter is activated in response to serum stimulation (FBS 2 hours, control) and following overnight treatment with 100 μM dexamethasone (DEX) in C2C12 myoblasts. This SRF-mediated transcriptional activity was blocked by pre-treatment with CCG-1423 (1 μM, 16 hours).
To determine whether SRF transcriptional activity is also changed in insulin resistance, 4× tandem repeat of SRF binding element (SRE) CArG boxes (Kuwahara et al., Mol. Cell Biol. 25:3173-3181 (2005)) promoters linked to a luciferase gene were used as a reporter. […] These increases in SRF transcriptional activity in insulin resistant states could cause up-regulation of SRF target gene expression.

[5] = tested on: Akt; experiment: Akt phosphorylation (phosphoimmunoblot) in C2C12 myotubes; type: cell-based; settings: for increase in insulin-stimulated Akt phosphorylation: C2C12 myotubes, overnight 1 μM CCG-1423
Method: The next experiments were performed to determine whether SRF transcriptional activity, rather than expression of SRF itself, is important for maintaining appropriate insulin sensitivity. A new compound, CCG-1423, is available for specifically inhibiting SRF transcriptional activity (Evelyn et al., Mol. Cancer Ther. 6:2249-2260 (2007)). […] CCG-1423 was then evaluated to test the possibility that reducing SRF transcriptional activity improves insulin sensitivity. Indeed, this is the case.
(§4) In parallel, CCG-1423 enhanced insulin action in C2C12 myotubes. Overnight treatment with 1 μM CCG-1423 increased insulin-stimulated Akt phosphorylation, both in the presence and absence of dexamethasone (41% for both, p=0.01 and p=0.007, respectively), while having no effect on p42/44 ERK phosphorylation (FIG. 11C).

[6] = tested on: p42/44 ERK; experiment: p42/44 ERK phosphorylation in C2C12 myotubes; type: cell-based; settings: overnight 1 μM CCG-1423 (FIG. 11C)
Method: as §4

[7] = tested on: IRS-1; experiment: IRS-1 tyrosine phosphorylation and association with p85 PI 3-kinase in myotubes; type: cell-based
Method: FIG. 11D is a phosphoimmunoblot showing that CCG-1423 increases basal and insulin-stimulated tyrosine phosphorylation of IRS-1 and its association with p85-PI 3-kinase, in both control and DEX-treated myotubes. * indicates p<0.05, **p<0.01, ***p<0.001.
as §4

[8] = tested on: L6 myotubes; experiment: 2-deoxyglucose uptake in L6 myotubes (FIG. 11E legend); type: cell-based; settings: CCG-1423 1 μM, 16 hours
Method: FIG. 11E is a line graph showing that both basal and insulin-stimulated 2-deoxyglucose uptake are increased by >4-fold in L6 myotubes following CCG-1423, with enhanced insulin sensitivity (1 μM, 16 hours). * indicates p<0.05, **p<0.01,***p<0.001.
as §2

[9] = tested on: GLUT4; experiment: GLUT4 expression in myotubes; type: cell-based; settings: myotubes treated with CCG-1423
Source text: as §1, §3

[10] = tested on: GLUT1; experiment: GLUT1 expression in myotubes; type: cell-based; settings: myotubes treated with CCG-1423
Source text: as §1, §3

[11] = tested on: human myotubes; experiment: Basal glucose uptake in human myotubes from control and diabetic subjects; type: cell-based
Method: The effects of CCG-1423 on human myotubes, and whether these effects would differ in myotubes derived from controls (n=2) vs. diabetic subjects (n=6), were also evaluated. […] The differential responsiveness in subjects with DM supports the concept that SRF pathways are more robustly activated in humans with insulin resistance and DM, and therefore potentially more sensitive to SRF inhibition.

[12] = tested on: MKL1; experiment: MKL1 cellular localization in C2C12 myoblasts; type: cell-based
Method: Since MKL1 is known to shuttle between the cytosol and nucleus to modulate target gene expression (Vartiainen et al., Science. 316:1749-1752 (2007)), the possibility arises that MKL1 localization may differ in insulin resistant state as compared to the normal state. […] In the basal state, MKL1 predominantly localized to cytosol and partially in nucleus. After 30 minutes of serum stimulation, MKL1 translocated to the […]. […] To determine whether MKL1 and G actin complex formation is changed in insulin resistance, the nuclear and cytosolic fractions from C2C12 myotubes were co-immunoprecipitated with MKL1 and blotted with beta actin.
To determine if the effects of CCG-1423 on SRF activity were mediated via MKL1 localization, MKL1 localization was assessed in C2C12 myoblasts treated with CCG-1423.

[13] = CCG-1423 treatment of high-fat diet-fed mice (glucose tolerance, insulin, body weight); type: in vivo
Method: (§5) To examine the therapeutic potential of this SRF inhibitor in vivo, we assessed responses to CCG-1423 treatment in mice with diet-induced obesity. […] The HFD mice were administered CCG-1423 (0.15 mg/kg body weight intraperitoneally) for two weeks.
In parallel, the high insulin levels associated with insulin resistance were normalized by CCG-1423 treatment (FIG. 13C).
To test this hypothesis, mice are treated with CCG-1423 in 2 models of murine insulin resistance: (1) high-fat diet-fed C57BL/6J mice (60% of calories from fat), or (2) genetically obese ob/ob mice. For these studies, mice are injected with CCG-1423 0.15 mg/kg/day or vehicle (DMSO), intraperitoneally, for 2 weeks. Body weight and food intake are monitored daily.

[14] = tested on: SRF, ELK1, SRF targets (ZYX, PDLIM7); experiment: Gene expression in skeletal muscle of HFD mice treated with CCG-1423; type: in vivo
Method: as §5

[15] = control and DEX-treated myotubes (FIG. 11D)
[16] = HFD mice, CCG-1423 0.15 mg/kg intraperitoneally, two weeks, vs vehicle-treated HFD mice, 0.15 mg/kg
[17] = CCG-1423 0.15 mg/kg intraperitoneally, two weeks

With insulin the “insulin-stimulated increase in deoxyglucose uptake” value ([1]; DMSO (vehicle)-treated myotubes, dose-dependent) was 2 fold and the insulin-stimulated glucose uptake ([2]; Myc-GLUT4 L6 myotubes, insulin alone (FIG. 20)) was 1.6 fold.
In the case of C/C1=C/C(=O)O[C@@H]2C[C@@H](CC[C@H](C)/C=C\CC1)O[C@@](O)([C@@H]1CSC(=O)N1)C2 [latrunculin B], the “increase in STARS expression” value [3] was 50%.
In the case of CC(ONC(=O)c1cc(C(F)(F)F)cc(C(F)(F)F)c1)C(=O)Nc1ccc(Cl)cc1 (stereo not shown) [CCG-1423], the “inhibition of SRF transcriptional activity / SRE promoter activity” value [4] was “specifically blocks SRF transcriptional activity; also recorded: reduced SRE promoter activity and efficiently blocked both serum- and dexamethasone-stimulated activation; also recorded: reduces SRE promoter activity; also recorded: inhibits SRF activity”, the “increase in insulin-stimulated Akt phosphorylation” value ([5]; absence of dexamethasone) was 41% and the “increase in insulin-stimulated Akt phosphorylation” value ([5]; presence of dexamethasone) was 41%. The “insulin-stimulated Akt phosphorylation (marker of insulin sensitivity)” value ([5]; myotubes, with or without dexamethasone, insulin 100 nM, 10 minutes (FIG. 11A, 11C)) was “increased insulin-simulated Akt phosphorylation; also recorded: improves insulin-stimulated Akt phosphorylation; also recorded: increases insulin-stimulated Akt phosphorylation”, the “p42/44 ERK phosphorylation” value [6] was “no effect; also recorded: minimal change” and the “association of IRS-1 with p85 regulatory subunit of PI 3-kinase” value [7, 15] was “increases”. The “basal and insulin-stimulated tyrosine phosphorylation of IRS-1” value [7, 15] was “increases”, the p85 expression ([7]; myotubes treated with CCG-1423) was “without altering” and the “increase in glucose uptake, basal state” value ([1]; myotubes incubated with CCG-1423 (FIG. 11E)) was 4 fold. The “insulin-stimulated glucose uptake response” value ([1]; myotubes incubated with CCG-1423, 1 μM insulin (FIG. 11E)) was 11.5 fold, the “increase in basal and insulin-stimulated 2-deoxyglucose uptake” value [8] was greater than 4 fold and the “increase in GLUT4 expression” value [9] was 4.1 fold. For the same compound, the “increase in GLUT1 expression” value [10] was 2.5 fold, the “basal increase in glucose uptake, mean” value ([11]; human myotubes from control subjects (n=2)) was 1.2 fold and the “basal increase in glucose uptake, mean” value ([11]; human myotubes from diabetic subjects (n=6)) was 3.2 fold. The “basal and insulin-stimulated glucose uptake (figure legend)” value ([2]; Myc-GLUT4 L6 myotubes (FIG. 19A, FIG. 20)) was “increases basal and insulin-stimulated 2-deoxyglucose uptake”, the “increase in basal glucose uptake” value ([2]; Myc-GLUT4 L6 myotubes, CCG-1423 1 μM, 16 hours) was 1.9 fold and the “increase in glucose uptake, combination with insulin” value ([2]; Myc-GLUT4 L6 myotubes, combination of CCG-1423 and insulin) was 2.6 fold. The MKL1 cytosol/nuclear localization [12] was “almost exclusively localized to the cytoplasm; also recorded: reversed dexamethasone-induced MKL1 nuclear localization to partial cytoplasmic localization; also recorded: inhibition of MKL1 nuclear localization; also recorded: reduced nuclear translocation of MKL1”, the “serum insulin levels during glucose tolerance test” value ([13]; HFD mice, 15 minutes after glucose injection, vs vehicle-treated HFD animals) was “normalized; also recorded: significantly reduced” and the body weight [13, 16] was “No significant change; also recorded: no differences; also recorded: not altered”. The food intake [13, 16] was “No significant change; also recorded: no differences”, the “in vivo glucose tolerance (intraperitoneal glucose tolerance test)” value [13, 16] was “significantly improved; also recorded: improves glucose tolerance; also recorded: improved in vivo glucose tolerance” and the adiponectin levels ([13]; HFD mice, CCG-1423 two weeks) was “No differences”. For the same compound, the “circulating fatty acid levels” value ([13]; HFD mice, CCG-1423 two weeks) was “No differences”, the insulin tolerance testing ([13]; HFD mice, CCG-1423 two weeks) was “No differences” and the “glucose tolerance test area under the curve (AUC)” value ([13]; HFD mice, CCG-1423 two weeks, vs vehicle-treated HFD animals) was “significantly reduced”. The “reduction of fed insulin levels” value ([13]; HFD-fed mice, CCG-1423 0.15 mg/kg/day intraperitoneally, 2 weeks, vs HFD-fed mice) was 50%, the “expression of ELK1” value [14, 17] was “did not alter” and the “expression of SRF” value [14, 17] was “did not alter”. For the same compound, the “expression of SRF targets in skeletal muscle, e.g., ZYX and PDLIM7” value ([14]; CCG-1423 two weeks, vs vehicle-injected controls) was “significantly decreased”.
